Assay results reported in JPH10251228A, “ニューロキニンアンタゴニストとしてのピペリジン誘導体” (Schering Plough Corp, priority 1997, dated 1998).
Read-outs that look alike come from different tables or passages of the source.

Experiments:
[1] = target: T1, human NK-1 receptor (ヒトNK-1レセプター) (Homo sapiens, UniProt P25103); assay: Neurokinin receptor binding assay, human NK1 ([3H]-substance P displacement, transfected CHO cell membranes)
T1 construct: expressed in transfected cells; host or cells: Chinese hamster ovary (CHO) cells, G418-selected; membranes prepared
T1 sequence (P25103 whole entry): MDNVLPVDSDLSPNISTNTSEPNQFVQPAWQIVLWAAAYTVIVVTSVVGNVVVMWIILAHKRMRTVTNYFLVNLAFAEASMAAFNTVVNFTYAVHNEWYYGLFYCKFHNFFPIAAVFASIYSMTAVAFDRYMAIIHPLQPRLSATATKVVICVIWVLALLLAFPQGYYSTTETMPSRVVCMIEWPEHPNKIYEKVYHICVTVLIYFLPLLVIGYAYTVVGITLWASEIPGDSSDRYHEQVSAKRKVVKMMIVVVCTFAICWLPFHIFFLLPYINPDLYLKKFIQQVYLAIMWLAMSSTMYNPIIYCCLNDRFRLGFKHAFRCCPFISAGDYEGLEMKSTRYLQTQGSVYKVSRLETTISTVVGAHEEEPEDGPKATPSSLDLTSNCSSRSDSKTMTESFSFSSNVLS

[2] = target: T2, human NK-2 receptor (ヒトNK-2レセプター) (Homo sapiens, UniProt P21452); assay: Neurokinin receptor binding assay, human NK2 ([3H]-neurokinin A displacement, transfected CHO cell membranes)
T2 construct: expressed in transfected cells; host or cells: Chinese hamster ovary (CHO) cells, G418-selected; membranes prepared
T2 sequence (P21452 1-398): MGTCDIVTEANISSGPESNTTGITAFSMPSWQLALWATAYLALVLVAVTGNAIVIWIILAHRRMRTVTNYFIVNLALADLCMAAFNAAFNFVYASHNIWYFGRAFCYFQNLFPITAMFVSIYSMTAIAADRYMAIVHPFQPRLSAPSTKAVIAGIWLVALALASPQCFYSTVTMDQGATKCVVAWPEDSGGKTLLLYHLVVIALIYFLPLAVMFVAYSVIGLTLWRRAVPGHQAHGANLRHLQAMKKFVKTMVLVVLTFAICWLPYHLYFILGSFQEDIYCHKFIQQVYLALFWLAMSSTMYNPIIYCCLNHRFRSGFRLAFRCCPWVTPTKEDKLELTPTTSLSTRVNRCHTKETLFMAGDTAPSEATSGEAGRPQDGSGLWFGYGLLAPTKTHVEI

[3] = neurokinin receptor binding assay, [3H]-neurokinin A 1.0 nM, CHO membranes, Cheng-Prusoff, read-out: NK2 Ki (binding)

Row | Structure (SMILES) | Ki [1] | Ki [2] | Ki [2, 3] | Ki ([1]; neurokinin receptor binding assay, [3H]-substance P 0.8 nM, CHO membranes, Cheng-Prusoff, read-out: NK1 Ki (binding))
1 | CN(CCc1ccccc1)C(=O)CC(CCN1CCC(O)(c2ccccc2)CC1)c1ccc(Cl)c(Cl)c1 (stereo not drawn) [β-(3,4-ジクロロフェニル)-4-ヒドロキシ-N-メチル-4-フェニル-N-(2-フェニルエチル)-1-ピペリジンペンタミド] | 70 nM | 46 nM |  | 
2 | COc1ccccc1CN(C)C(=O)CC(CCN1CCC(O)(c2ccccc2)CC1)c1ccc(Cl)c(Cl)c1 (stereo not drawn) [β-(3,4-ジクロロフェニル)-4-ヒドロキシ-N-[(2-メトキシフェニル)メチル]-N-メチル-4-フェニル-1-ピペリジンペンタミド] | 7.5 nM | 33 nM |  | 
3 | CN(Cc1ccccc1)C(=O)CC(CCN1CCC(O)(c2ccccc2)CC1)c1ccc(Cl)c(Cl)c1 (stereo not drawn) [β-(3,4-ジクロロフェニル)-4-ヒドロキシ-N-メチル-4-フェニル-N-(フェニルメチル)-1-ピペリジンペンタミド] | 6.8 nM |  | 108 nM | 
4 | CN(C(=O)CC(CCN1CCC(O)(c2ccccc2)CC1)c1ccc(Cl)c(Cl)c1)c1ccccc1 (stereo not drawn) [β-(3,4-ジクロロフェニル)-4-ヒドロキシ-N-メチル-N,4-ジフェニル-1-ピペリジンペンタミド] |  | 5.2 nM |  | 150 nM
5 | COc1cccc(CN(C)C(=O)CC(CCN2CCC(O)(c3ccccc3)CC2)c2ccc(Cl)c(Cl)c2)c1 (stereo not drawn) [β-(3,4-ジクロロフェニル)-4-ヒドロキシ-N-[(3-メトキシフェニル)メチル]-N-メチル-4-フェニル-1-ピペリジンペンタミド] | 12 nM |  | 215 nM | 
